# Laboratory results as given in the METLIN SMRT retention time set (Domingo-Almenara et al. 2019).
# Assay: gradient 5% acetonitrile 3 min, to 50% in 2 min, to 85% in 15 min, held 3 min, 100 µL/min
# Conditions: column: Zorbax Extend-C18 2.1 x 50 mm; eluents: water / acetonitrile, 0.1% formic acid
# Procedure, shortened: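 Retention time was recorded from adduct peaks, which were picked computationally and each inspected manually. Pure standards ran in mixtures of ~100 molecules on HPLC coupled to a quadrupole time-of-flight mass spectrometer, in positive and negative ionization mode, through a Zorbax Extend-C18 column (2.1 × 50 mm, 1.8 μm) at 100 μL/min. Eluents were water and acetonitrile, each with 0.1% formic acid.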
row,Structure (SMILES),RP-LC retention time [s]
1,Cc1cccc(NC(=O)c2nc(N3CCSCC3)c3cnn(C)c3n2)c1,901
2,O=C(c1cc(-c2cccc(F)c2)ns1)N1CCCC1,924
3,Cc1ccccc1CNC(=O)Cn1c(C)cc(-c2nnc(C3CCC3)o2)c1C,902
4,Cn1c(=O)c2nc(S(=O)(=O)CCC(=O)Nc3cc(Cl)ccc3F)n(C)c2n(C)c1=O,771
5,Cc1nn(C(C)C)c(C)c1S(=O)(=O)N1CCN(C(=O)CCc2c[nH]c3ccccc23)CC1,829
6,Cc1nnc(N2CCCC(C(=O)NCc3ccc4c(c3)OCO4)C2)c2nn(-c3ccccc3)c(C)c12 (centres undefined),698
7,CN(C)CCNc1nnc(-c2nc(-c3ccc(F)cc3)no2)c2ccccc12,687
8,O=C(COc1ccccc1)Nc1c(C(=O)N2CCN(c3ccccn3)CC2)oc2ccccc12,760
9,COc1ccc(NS(=O)(=O)c2cc3n(c2)CCCN(C(C)C)C3=O)cc1Cl,773
10,Cc1ccc2[nH]cc(CCN3CC(C(=O)NC4CCCCCCC4)CC3=O)c2c1 (centres undefined),907
11,O=C(Nc1ccc(-c2nc3ccccc3s2)cc1)c1cc(=O)c2ccccc2o1,1030
12,O=C1NC2(CCN(C(=O)NCc3ccc(F)cc3)CC2)Nc2cc(Cl)ccc21,740
13,Cc1ccc(CNC(=O)CCc2conc2-c2ccccc2)cc1,896
14,Cc1ccc2nc(-c3cccc(Br)c3)c(Nc3ccc4c(c3)OCCO4)n2c1,749
15,O=C(NCCc1c[nH]c2ccc(Cl)cc12)C1CCN(c2ccncc2)CC1,643
16,Cc1occc1C(=O)Nc1nc(-c2ccc(C(C)(C)C)cc2)cs1,1300
17,O=C(Nc1ccc(F)cc1Cl)c1cnc(-c2ccccc2)nc1-c1ccncc1,976
18,Cc1cccn2cc(-c3cccc(NS(=O)(=O)c4ccc(Cl)c(Cl)c4)c3)nc12,747
19,Cc1nc(-c2ccncc2)nc2c1CCC(=O)N2Cc1cccnc1,553
20,Cc1cc(C)n2c(Nc3ccc(C(C)C)cc3)c(-c3ccccc3)nc2n1,828

row,Structure (SMILES),RP-LC retention time [s]
1,COc1ccc(CNC(=O)c2ccc3c(=O)n(-c4cccc(OC)c4)c(N4CCCC4)nc3c2)cc1,833
2,CCOc1cc(=O)c(C(=O)N2CCC(C(N)=O)CC2)nn1-c1ccc(OC)cc1,609
3,COc1ccccc1CNC(=O)CN1CCN(Cc2cccc(Cl)c2)C1=O,848
4,COc1ccc(CNC(=O)C2CCN(c3cc(N4CCSCC4)ncn3)CC2)cc1,656
5,Cc1c(F)cccc1NS(=O)(=O)c1cc(-c2nc(C(C)(C)C)cs2)cs1,1310
6,O=c1c(=O)n(-c2ccccc2)ccn1Cc1nc(-c2ccc(Br)cc2)no1,901
7,CC(C)Cc1ccc(S(=O)(=O)N2CCCC2c2nc(-c3ccc(F)cc3)no2)cc1 (centres undefined),1360
8,Cc1ccc(CNC(=O)c2ncn3c2C(=O)N(C2CC2)C(C)(C(=O)NCc2cccc(C)c2)C3)cc1 (centres undefined),827
9,O=C(Nc1nc(-c2ccc(F)cc2)cs1)c1cccc(F)c1,1060
10,CCCn1c(=O)c(C)nc2cc(-c3noc(-c4ccc(F)cc4)n3)ccc21,1200
11,CCOc1ccc(CC(=O)N2CCC3(CC2)N=C(c2ccccc2)NO3)cc1,780
12,Cc1ccc2c(c1)cc(S(=O)(=O)c1ccccc1)c(=O)n2CC(=O)NCc1ccc2c(c1)OCO2,899
13,CSc1ccc(-c2noc(Cn3ncn4nc(-c5cccs5)cc4c3=O)n2)cc1,1130
14,COC(=O)c1ccccc1NC(=O)C1CCCN(c2nc3c(s2)c(C)nn3-c2ccccc2)C1 (centres undefined),1380
15,CCC(=O)N1CCc2c(-c3ccccc3)cccc2[C@H]1C,1030
16,CCNC(=O)C1CCCN(c2nc3ncn(CC(=O)Nc4cccc(F)c4)c(=O)c3s2)C1 (centres undefined),676
17,CCN1c2ccccc2C(=O)NC12CCN(C(=O)c1cc(C)cc(C)c1)CC2,868
18,COc1cn(CC(=O)Nc2ccc(OC(F)(F)F)cc2)c(CO)cc1=O,618
19,CN1C(=O)c2cccnc2Sc2cc(NC(=O)C3CC3)ccc21,650
20,COc1ccc(-c2noc(-c3nnn4c3COC(c3ccc(Cl)cc3)C4)n2)cc1OC (centres undefined),1130

row,Structure (SMILES),RP-LC retention time [s]
1,Cc1ccc(-c2csc(NC(=O)CN3C(=O)c4ccccc4C3=O)n2)o1,852
2,c1cncc(-c2nc(-c3ccnc(N4CCCC4)c3)no2)c1,590
3,O=C(c1cccc2[nH]ccc12)N1CC(Oc2ccc(-c3nc(-c4ccccc4)no3)cc2)C1,1100
4,O=C(Cn1nc2c(Oc3ccc(F)cc3)nccn2c1=O)NC1CCCCC1,804
5,O=C(Cc1cccs1)N1CCCn2cc(-c3ccccc3F)nc21,848
6,Cc1cccc(N2CCN(Cc3nc(-c4ccc(N5CCCCC5)nc4)no3)CC2)c1C,1160
7,O=C(Cc1csc(-n2cccc2)n1)NCc1nc(-c2ccccc2)no1,821
8,CCn1ccc2sc(C)c(C(=O)NCc3cccs3)c2c1=O,772
9,CCCCOc1ccc(C(=O)N2CCN(c3cc(C)nc(N4CCCC4)n3)CC2)cc1,788
10,CC(C)(C)C1(C)NN=C2Sc3ccccc3N21 (centres undefined),1030
11,O=C(NCC(c1cccnc1)N1CCc2ccccc21)C(=O)Nc1ccc2c(c1)OCCO2 (centres undefined),730
12,Cc1csc(-c2ccc(N3CCN(C(=O)c4ccncc4)CC3)nc2)n1,632
13,CCc1ccc(-c2noc(CN3C(=O)COc4ccccc43)n2)cc1,1120
14,COc1cc(Br)c(CC2C(=O)Nc3ccccc32)cc1OC (centres undefined),842
15,CCCn1cc(C(=O)NCCN2CCOCC2)c2cccnc21,586
16,CCOC(=O)C1CCN(C(=O)c2cn3c(n2)CN(CC)CC3)CC1,575
17,CCC1(O)CCC12CCN(C(=O)CC1CCCC1)CC2 (centres undefined),830
18,CCCc1noc(-c2ccc(-n3ncc(C(=O)NC(C)C)c3C)nc2)n1,970
19,COc1ccc(C2C(C(=O)NCc3ccccn3)c3cc(OC)c(OC)cc3C(=O)N2C)cc1 (centres undefined),609
20,O=C(c1ccccc1Cl)N(CCc1ccccc1)Cc1ccccn1,790

# Continued, values first:
row,RP-LC retention time [s],Structure (SMILES)
1,600,CCn1c(=O)sc2cc(S(=O)(=O)N3CCC(C(=O)N4CCN(C)CC4)CC3)ccc21
2,981,Cc1ccsc1C(=O)Nc1cccc(OCc2nnc(-c3ccc(F)cc3)o2)c1
3,918,O=C(NCCOc1ccccc1)c1ccccc1C(=O)c1ccccc1
4,868,COc1cc(-c2noc(Cn3c(=O)n(-c4ccccc4)c(=O)c4sccc43)n2)cc(OC)c1OC
5,671,CCOc1cccc(CNC(=O)c2cn3ccc(C)cc3n2)c1
6,600,CN1C(=O)C2CCCCN2c2ccc(C(=O)NCCCN3CCCCC3)cc21 (centres undefined)
7,1200,Cc1nn(-c2ccc(F)cc2)c2nc(N3CCCC(C(=O)NCc4cccc(Cl)c4)C3)sc12 (centres undefined)
8,875,Cc1cccc(S(=O)(=O)NC2CCN(c3ccccc3)C2=O)c1 (centres undefined)
9,647,O=S(=O)(c1ccc(Cl)cc1)N1CC(F)(F)C[C@H]1CN1CCc2ccccc2C1
10,1040,CCCS(=O)(=O)N1CC(=O)N(c2ccc(Cl)cc2C)C(C)(C(=O)NC2CCCCC2)C1 (centres undefined)
11,627,CS(=O)(=O)N1CCCC(C(=O)Nc2nccs2)C1 (centres undefined)
12,553,O=C(NCc1cccnc1)C1CCN(c2cc(N3CCSCC3)ncn2)CC1
13,853,COc1cc2c(cc1CNC(=O)Cn1cc(C#N)c3ccccc31)OCCCO2
14,774,Cc1ccc(CSc2ncnc3nc[nH]c23)cc1
15,702,CC(C)(C)c1ccc(-c2nc3ccccc3[nH]2)cc1
16,619,Cn1cc(-c2cc3n(n2)CCC(=O)N3CCCC(=O)N2CCN(c3ccccn3)CC2)c2ccccc21
17,663,CCN1C(=O)CCC2(C(=O)Nc3ccc(N4CCOCC4)cc3)CCCC=C12 (centres undefined)
18,1050,COc1ccc(CCc2nc(C3CC(=O)N(c4ccc(Cl)cc4)C3)no2)cc1 (centres undefined)
19,630,COC(=O)c1ccccc1NC(=O)NCCn1c(C)nc2ccccc21
20,836,O=C(Cn1c(C(F)(F)F)nc2cc3c(cc21)OCCO3)Nc1ccc2c(c1)OCCCO2
21,702,Cc1ccc(S(=O)(=O)N2CCC(CN3CCCC(C)C3)CC2)cc1F (centres undefined)
22,518,CN(C)[C@@H]1CN(Cc2ccccc2C#N)C[C@H]1CO
23,860,CCOC(=O)c1c(C)oc2ncnc(NCCN3CCN(c4cccc(Cl)c4)CC3)c12
24,855,COc1cccc(-c2noc(C3CCCN3C(=O)Nc3ccc(OC)c(OC)c3)n2)c1 (centres undefined)
25,578,O=C(NCCn1ncccc1=O)NCc1ccccc1
26,835,CCN(CC)S(=O)(=O)c1ccc2c(c1)N(CC(=O)N1CCCC1)C(=O)C1CCCCN21 (centres undefined)
27,840,CCC(=O)Nc1ccc(OCc2cc(C(=O)NC3CCCCC3)no2)cc1
28,968,Cc1sc(NC(=O)c2ccc(Cl)cc2)nc1-c1ccc2c(c1)NC(=O)C(C)O2 (centres undefined)
29,896,CCn1c(=O)sc2cc(S(=O)(=O)N3CCC(C(=O)N4CCCCC4C)CC3)ccc21 (centres undefined)
